Each structure is given as a SMILES string. Starred links: 1 amine or outer side, 2 acyl side, 3 side chain; linkers in the order of their positions; H or OH if unused. Positions of bridges follow the written chain, without caps; N, C: chain ends. Non-standard residues stand in square brackets, D forms with d. Residues, ends and D or L forms follow the SMILES beside them. ξ: configuration not given here. *: point of attachment. Bip(4'-NHCO-C6H4-4-CH2COOH) = N[C@@H](Cc1ccc(-c2ccc(NC(=O)c3ccc(CC(=O)O)cc3)cc2)cc1)C(=O)O; X56 = O=C(O)COc1cccc(NC(=O)c2ccc(-c3ccc(C[C@H](N[*:1])C(=O)[*:2])cc3)cc2)c1; Bip(4'-NH) = O=C([C@H](Cc1ccc(-c2ccc(N[*:3])cc2)cc1)N[*:1])[*:2]; dArg(ω-Bn(3-CH2OH)) = N=C(NCCC[C@@H](N)C(=O)O)NCc1cccc(CO)c1; Indazole3carbonyl(1-CH2COOH) = O=C(O)Cn1nc(C(=O)*)c2ccccc21; Bip(4'-COOH) = N[C@@H](Cc1ccc(-c2ccc(C(=O)O)cc2)cc1)C(=O)O; Bip(4'-NHAc) = CC(=O)Nc1ccc(-c2ccc(C[C@H](N)C(=O)O)cc2)cc1; X53 = CC(C)(C)n1nnc(CNC(=N)NCCC[C@@H](N[*:1])C(=O)[*:2])n1; Ala(imidazol-2-yl) = N[C@@H](Cc1ncc[nH]1)C(=O)O; dArg(ω-Bn) = N=C(NCCC[C@@H](N)C(=O)O)NCc1ccccc1; Ala(morpholin-4-yl) = N[C@@H](CN1CCOCC1)C(=O)O; Benzoyl(3-OCH2COOH) = O=C(O)COc1cccc(C(=O)*)c1; Phe(4-CH2NH2) = NCc1ccc(C[C@H](N)C(=O)O)cc1; Bip = N[C@@H](Cc1ccc(-c2ccccc2)cc1)C(=O)O; Tic = O=C(O)[C@@H]1Cc2ccccc2CN1; Cha = N[C@@H](CC1CCCCC1)C(=O)O; ξP = O=C(O)C1CCCN1; Sar = CNCC(=O)O

The target in the first test is TNFα (Homo sapiens, UniProt P01375). Nature of the test: TNF-Induced HEK-Blue Assay. It is filed as cell-based.
Chain of TNFα (P01375 77-233 limits assumed): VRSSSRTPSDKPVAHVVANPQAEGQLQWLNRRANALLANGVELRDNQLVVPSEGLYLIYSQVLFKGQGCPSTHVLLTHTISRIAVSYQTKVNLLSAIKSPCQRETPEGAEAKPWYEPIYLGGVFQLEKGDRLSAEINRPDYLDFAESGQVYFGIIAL
Settings: not given
Regarding `CC(C)C[C@@H]1NC(=O)[C@H](CCCNC(=N)N)NC(=O)[C@H](C(C)C)NC(=O)[C@@H]2CCCN2C(=O)[C@H](C(C)C)NC(=O)[C@@H](CCCNC(=N)NCc2cccc(CO)c2)NC(=O)[C@H](CC(=O)O)NC(=O)[C@@H]2CCCN2C(=O)CN(C)C(=O)[C@H](Cc2ccc(-c3ccc(NC(=O)c4nn(CC(=O)O)c5ccccc45)cc3)cc2)NC(=O)[C@H](Cc2ccc(-c3ccccc3)cc2)NC(=O)[C@H](CN2CCOCC2)NC(=O)CSC[C@@H](C(=O)NCC(N)=O)NC1=O` [Example 425] ({CH2CO}-[Ala(morpholin-4-yl)][Bip][Bip(4'-NH)](Indazole3carbonyl(1-CH2COOH))[Sar]PD[dArg(ω-Bn(3-CH2OH))]VPVRLCG-NH2; thioether N-13), the IC50 – broadly, the concentration needed to halve the response being measured – was under 50 nM.

For the compound `CC(C)C[C@@H]1NC(=O)[C@H](CCCNC(=N)N)NC(=O)[C@H](C(C)C)NC(=O)[C@@H]2CCCN2C(=O)[C@H](C(C)C)NC(=O)[C@@H](CCCNC(=N)NCc2nnn(C(C)(C)C)n2)NC(=O)[C@H](CC(=O)O)NC(=O)[C@@H]2CCCN2C(=O)CN(C)C(=O)[C@H](Cc2ccc(-c3ccc(NC(=O)c4nn(CC(=O)O)c5ccccc45)cc3)cc2)NC(=O)[C@H](Cc2ccc(-c3ccccc3)cc2)NC(=O)[C@H](CN2CCOCC2)NC(=O)CSC[C@@H](C(=O)NCC(N)=O)NC1=O` [Example 510] ({CH2CO}-[Ala(morpholin-4-yl)][Bip][Bip(4'-NH)](Indazole3carbonyl(1-CH2COOH))[Sar]PD[X53]VPVRLCG-NH2; thioether N-13), the IC50 was under 50 nM.

Staying with this test, now noted: HEK-Blue-CD40L cells, NF-kB-driven secreted alkaline phosphatase reporter; TNFα 0.5 ng/ml; 18 h; read-out: TNF induced HEK-Blue assay IC50 value.
Take `CC(=O)Nc1ccc(-c2ccc(C[C@@H]3NC(=O)[C@H](Cc4ccc(-c5ccc(C(=O)O)cc5)cc4)NC(=O)[C@H](CC4CCCCC4)NC(=O)CSC[C@@H](C(=O)NCC(N)=O)NC(=O)[C@H](CC(C)C)NC(=O)[C@H](Cc4cnc[nH]4)NC(=O)[C@H](C(C)C)NC(=O)[C@@H]4CCCN4C(=O)[C@H](CC(N)=O)NC(=O)[C@@H](CCCNC(=N)N)NC(=O)[C@H](CC(=O)O)NC(=O)[C@H](Cc4ccc(O)cc4)NC(=O)CN(C)C3=O)cc2)cc1` [Example 248] ({CH2CO}-[Cha][Bip(4'-COOH)][Bip(4'-NHAc)][Sar]YD[dR]NPVHLCG-NH2; thioether N-13): the IC50 fell in the range of 50 to 200 nM.

With `CC(C)C[C@@H]1NC(=O)[C@H](Cc2ccc(O)cc2)NC(=O)[C@H](C(C)C)NC(=O)[C@@H]2Cc3ccccc3CN2C(=O)[C@H](C(C)C)NC(=O)[C@@H](CCCNC(=N)N)NC(=O)[C@H](CC(=O)O)NC(=O)[C@@H]2CCCN2C(=O)CN(C)C(=O)[C@H](Cc2ccc(-c3ccc(NC(=O)c4cccc(OCC(=O)O)c4)cc3)cc2)NC(=O)[C@H](Cc2ccc(-c3ccc(C(=O)O)cc3)cc2)NC(=O)[C@H](CC2CCCCC2)NC(=O)CSC[C@@H](C(=O)NCC(N)=O)NC1=O` [Example 369] ({CH2CO}-[Cha][Bip(4'-COOH)][Bip(4'-NH)](Benzoyl(3-OCH2COOH))[Sar]PD[dR]V[Tic]VYLCG-NH2; thioether N-13), the IC50 was 50 to 200 nM.

In the case of `CC[C@H](C)[C@@H]1NC(=O)[C@@H](CCCNC(=N)N)NC(=O)[C@H](CC(=O)O)NC(=O)[C@H](Cc2cnc[nH]2)NC(=O)CN(C)C(=O)[C@H](Cc2ccc(-c3ccc(NC(=O)c4cccc(OCC(=O)O)c4)cc3)cc2)NC(=O)[C@H](Cc2ccc(-c3ccc(C(=O)Nc4cccc(OCC(=O)O)c4)cc3)cc2)NC(=O)[C@H](CC2CCCCC2)NC(=O)CSC[C@@H](C(=O)NCC(N)=O)NC(=O)[C@H](CC(C)C)NC(=O)[C@H](Cc2ncc[nH]2)NC(=O)[C@H](C(C)C)NC(=O)C2CCCN2C1=O` (stereo partly shown) [Example 422] ({CH2CO}-[Cha][X56][Bip(4'-NH)](Benzoyl(3-OCH2COOH))[Sar]HD[dR]I[ξP]V[Ala(imidazol-2-yl)]LCG-NH2; thioether N-13), the IC50 was under 50 nM.

As to `CC(C)C[C@@H]1NC(=O)[C@H](CCCNC(=N)N)NC(=O)[C@H](C(C)C)NC(=O)[C@@H]2CCCN2C(=O)[C@H](Cc2ccc(CN)cc2)NC(=O)[C@H](CCCNC(=N)N)NC(=O)[C@H](CC(=O)O)NC(=O)[C@@H]2CCCN2C(=O)CN(C)C(=O)[C@H](Cc2ccc(-c3ccccc3)cc2)NC(=O)[C@H](Cc2ccc(-c3ccccc3)cc2)NC(=O)[C@H](Cc2ccccc2)NC(=O)CSC[C@@H](C(=O)NCC(N)=O)NC1=O` [Example 22] ({CH2CO}-F[Bip][Bip][Sar]PDR[Phe(4-CH2NH2)]PVRLCG-NH2; thioether N-13), the IC50 fell in the range of 200 to 2000 nM.

`CC[C@H](C)[C@@H]1NC(=O)[C@@H](CCCNC(=N)NCc2ccccc2)NC(=O)[C@H](CC(=O)O)NC(=O)[C@H](Cc2cnc[nH]2)NC(=O)CN(C)C(=O)[C@H](Cc2ccc(-c3ccc(NC(=O)c4ccc(CC(=O)O)cc4)cc3)cc2)NC(=O)[C@H](Cc2ccc(-c3ccc(C(=O)O)cc3)cc2)NC(=O)[C@H](CC2CCCCC2)NC(=O)CSC[C@@H](C(=O)NCC(N)=O)NC(=O)[C@H](CC(C)C)NC(=O)[C@H](Cc2cnc[nH]2)NC(=O)[C@H](C(C)C)NC(=O)[C@@H]2CCCN2C1=O` [Example 584] ({CH2CO}-[Cha][Bip(4'-COOH)][Bip(4'-NHCO-C6H4-4-CH2COOH)][Sar]HD[dArg(ω-Bn)]IPVHLCG-NH2; thioether N-13): the IC50 was 50 to 200 nM.
